Assay results reported in patent publication US20170265465A1, “BIORATIONAL TREATMENT PRODUCTS AND METHODS OF USING SAME” (Board of Trustees of Michigan State University, priority 2014, published 2017).

Tests used:
Type in all cases: in vivo
[1] = tested on: creeping bentgrass (Argostis palustris) fairway; experiment: Example 2: visual growth (biomass) rating; details: scale 1 = least, 9 = most increase
[2] = tested on: winter-dormant creeping bentgrass putting green (Agrostis palustris); experiment: Example 4, 2013 spring green-up/winter dormancy break study: turfgrass quality rating; details: May 11, 2013; scale 1-9, 7 = acceptable; per 1000 ft^2, as far as in the treatment: canola oil concentrate (94.7%:4.7%:0.8% oil:Foursome:Silwet L-77) 8 fl. oz., Urea 0.2 lb. N
Source text: This study was established on a brown, desiccated, winter-dormant creeping bentgrass putting green (Agrostis palustris) (˜0.15 in ([…]) height of cut) on the same research center as in previous examples. The study was established in four replications of a randomized block design, using 2 ft.×7.5 ft. (0.6 m×2.3 m) plots with 6 in. (0.15 m) alleys. Treatments were applied with the backpack sprayer described in Example 1 operating at 40 PSI (2.8 kg/cm^2) with a 96 GPA (898 L/ha) spray volume. Treatments were applied in this “green-up”/winter dormancy break study on a 21-day schedule on Apr. 5, 2013, and Apr. 27, 2013 Turfgrass quality ratings in this example included observations of increased density, increased growth, and degree of color intensity change. These observations were taken on May 11, 2013, and were based on a visual 1 (worst) −9 (best) rating scale, with a 7-rating representing acceptable turfgrass “quality.”

irrigated putting green [3] = experiment: Example 15, 2016 bio-adjuvant/fertility study: visual turfgrass quality rating; details: scale 1-9 (1 = worst, 9 = best, 7 = acceptable)
Procedure: (§1) The study was established in four replications of a randomized block design utilizing 2 ft.×21 ft. plots with 6 inch alleys. Treatments were initially applied on Sep. 13, 2016 with the same sprayer and under the same conditions described in Example 1. Turfgrass quality ratings and biomass ratings were performed as described in Example 1. The plots were trimmed on September 19, October 8, and Oct. 24, 2016 and clippings were also collected as described in Example 1.
(§2) Treatments were re-applied on Sep. 28, 2016 and Oct. 11, 2016. Turfgrass visual growth and quality ratings were taken periodically, along with turfgrass color ratings as taken with a Spectrum Technologies, Inc. TCM 500 NDVI Color Meter and a Spectrum Technologies, Inc. FieldScout CM 1000 Chlorophyll Meter. The study was irrigated as needed to prevent wilt. No background fertility was applied to the study area. The area was sprayed with 26GT fungicide on Sep. 27, 2016 to control dollar spot disease.

[4] = tested on: creeping bentgrass (Argostis palustris) fairway; experiment: Example 2: clippings (biomass) dry weight
Procedure: Objective biomass ratings were also performed based on an increase in dried weight of clippings. Clippings were collected over pre-measured plot areas in each treatment replicate using a Toro® brand walk-behind greens mower Model […] 8000 at the height described in this Example and dried in a drying oven (60° C.) for approximately 48 hours before being weighed. […] Prior to the study, diseases were controlled with as-needed fungicide applications. Fertility was maintained at approximately 0.1 lb.

irrigated putting green [5] = experiment: Example 15: dried clipping weights; details: application interval 14 days; for All Clippings (Dried), Mean Total Clippings: Sept 19-Oct. 24
Procedure: Some biomass ratings were subjective visual estimations based on appearance of a combination of increased biomass and increased density on a 1 (least increase) to 9 (most increase) scale. Objective biomass ratings were also performed based on an increase in dried weight of clippings. Clippings were collected over pre-measured plot areas in each treatment replicate using a Toro® brand walk-behind greens mower Model Greensmaster 8000 at the height described in this Example and dried in a drying oven (60° C.) for approximately 48 hours before being weighed.
as §1, §2

[6] = tested on: creeping bentgrass (Argostis palustris) fairway; experiment: Example 2, 2013 urea (46-0-0)/canola oil study: turfgrass quality rating; details: scale 1-9, 7 = acceptable
Source text: This study was established on an irrigated, creeping bentgrass (Argostis palustris) fairway (˜0.5 in (1.3 cm) height of cut) on the same research center as in Example 1. The study was established in four replications of a randomized block design, using 2 ft.×10.5 ft. (0.6 m×3.2 m) plots with 6 in. (0.15 m) alleys. Prior to the study, diseases were controlled with as-needed fungicide applications. Fertility was maintained at approximately 0.1 lb. N/1000 ft^2 (0.49 g/m^2)/mo. […] Turfgrass quality ratings and biomass ratings were performed as described in Example 1. Clippings were also collected as described in Example 1.
Treatments of sprayable urea (46-0-0) (The Andersons, Inc.) hereinafter “Urea (46-0-0)” and Civitas/Harmonizer fungicide/turf pigment (Suncor Energy Corp.) were applied initially on Aug. 22, 2013.

irrigated putting green [7] = experiment: Example 15: turfgrass color rating, TCM 500 NDVI Color Meter; details: Sept. 16, TCM 500 NDVI Turf Color Meter
Procedure: as §1, §2

irrigated putting green [8] = experiment: Example 15: dew rating; details: Sept. 15, visual scale 1 = least
Procedure: as §1, §2
Dew reduction (Table 25) is directly related to the amount of bio-adjuvant applied, specifically, the amount of canola oil in the treatment. Dew reduction is relevant to disease control because it can translate into reduced foliar disease pressure, and reduced frost accumulation. […] 15, 2016.

[9] = Sep. 3, 2013, one application, per 1000 ft^2, as far as in the treatment: Urea 0.1 lb. N, Canola Oil Concentrate/Bio-Adjuvant 10 fl. oz., Civitas 8 + Harmonizer 0.5 fl. oz.
[10] = Sep. 3, 2013, Urea 0.2 lb. N/1000 ft^2, Canola Oil 10 fl. oz. or Civitas 8 + Harmonizer 0.5 fl. oz. where in the treatment
[11] = Sep. 3, 2013, Urea 0.3 lb. N/1000 ft^2, Canola Oil Bio-Adjuvant 10 fl. oz. or Civitas 8 + Harmonizer 0.5 fl. oz. where in the treatment
[12] = Trt. 4, 0.1 lb N/1000 sq. ft. /14 days
[13] = Trt. 5, 0.05 lb N/1000 sq. ft. /14 days

NC(N)=O [Urea (46-0-0), urea]
Visual Growth (Biomass) [1, 9]: 3 ef
Visual Growth (Biomass) [1, 10]: 3.75 de
Visual Growth (Biomass) [1, 11]: 3.75 de
Turfgrass Quality [2]: 6.0 c
Visual Turfgrass Quality, MEAN (irrigated putting green [3]; Trt. 4, 0.1 lb N/1000 sq. ft. /14 days, Oct. 1 (3 DAT)): 7.0
Visual Turfgrass Quality, MEAN (irrigated putting green [3]; Trt. 4, 0.1 lb N/1000 sq. ft. /14 days, Oct. 6 (8 DAT)): 7.3
Visual Turfgrass Quality, MEAN (irrigated putting green [3]; Trt. 4, 0.1 lb N/1000 sq. ft. /14 days, Sept. 19 (6 DAT)): 7.3
Visual Turfgrass Quality, MEAN (irrigated putting green [3]; Trt. 5, 0.05 lb N/1000 sq. ft. /14 days, Oct. 1 (3 DAT)): 7.0
Visual Turfgrass Quality, MEAN (irrigated putting green [3]; Trt. 5, 0.05 lb N/1000 sq. ft. /14 days, Oct. 6 (8 DAT)): 6.8
Visual Turfgrass Quality, MEAN (irrigated putting green [3]; Trt. 5, 0.05 lb N/1000 sq. ft. /14 days, Sept. 19 (6 DAT)): 6.8
Clippings (Biomass) Dry wt (g) [4, 9]: 7.21 f g
Clippings (Biomass) Dry wt (g) [4, 10]: 7.87 f g
Clippings (Biomass) Dry wt (g) [4, 11]: 9.77 bcd g
Dried Clipping Weight, Mean (irrigated putting green [5]; Trt. 4, 0.1 lb N/1000 sq. ft., Oct. 8): 62.5 gms
Dried Clipping Weight, Mean (irrigated putting green [5]; Trt. 4, 0.1 lb N/1000 sq. ft., Oct. 24): 55.8 gms
All Clippings (Dried), Mean Total Clippings (irrigated putting green [5]; Trt. 4, 0.1 lb N/1000 sq. ft.): 189.8 gms
Dried Clipping Weight, Mean (irrigated putting green [5]; Trt. 4, 0.1 lb N/1000 sq. ft., Sept. 19): 71.5 gms
Dried Clipping Weight, Mean (irrigated putting green [5]; Trt. 5, 0.05 lb N/1000 sq. ft., Oct. 8): 59.5 gms
Dried Clipping Weight, Mean (irrigated putting green [5]; Trt. 5, 0.05 lb N/1000 sq. ft., Oct. 24): 46.5 gms
All Clippings (Dried), Mean Total Clippings (irrigated putting green [5]; Trt. 5, 0.05 lb N/1000 sq. ft.): 177.3 gms
Dried Clipping Weight, Mean (irrigated putting green [5]; Trt. 5, 0.05 lb N/1000 sq. ft., Sept. 19): 71.3 gms
Turfgrass Quality [6, 9]: 6.5 ef
Turfgrass Quality [6, 10]: 6.75 de
Turfgrass Quality [6, 11]: 7.5 bc
Turfgrass Color (Greenness), MEAN, NDVI reading (irrigated putting green [7]; [12]): 0.761
Turfgrass Color (Greenness), MEAN, NDVI reading (irrigated putting green [7]; [13]): 0.755
Dew rating, Mean (irrigated putting green [8]; [12]): 5.0
Dew rating, Mean (irrigated putting green [8]; [13]): 5.0
